Experiment: xn = mol fraction of the nth substance listed
Conditions: 101 kPa, Liquid, Vibrating tube method

N#Cc1ccccc1 [benzonitrile] + CCCCCCCC
mass density [kg/m3]
Conditions	283.15 K	288.15 K	293.15 K	298.15 K	303.15 K	308.15 K	313.15 K	318.15 K
x1 = 0.022	714.94	710.93	706.9	702.86	698.79	694.71	690.6	686.47
x1 = 0.0576	721.95	717.92	713.87	709.81	705.72	701.62	697.49	693.34
x1 = 0.102	731.07	727.01	722.94	718.85	714.74	710.61	706.47	702.29
x1 = 0.1999	752.43	748.32	744.2	740.06	735.9	731.73	727.54	723.33
x1 = 0.2998	776.16	772.01	767.84	763.66	759.46	755.25	751.02	746.78
x1 = 0.4001	802.02	797.83	793.63	789.41	785.18	780.93	776.67	772.39
x1 = 0.4637	819.57	815.35	811.12	806.89	802.63	798.37	794.09	789.79
x1 = 0.4997	829.9	825.68	821.44	817.19	812.93	808.65	804.35	800.04
x1 = 0.5004	830.12	825.9	821.66	817.41	813.14	808.86	804.56	800.25
x1 = 0.6001	860.7	856.42	852.14	847.85	843.55	839.23	834.9	830.56
x1 = 0.7001	894.21	889.88	885.55	881.22	876.87	872.51	868.15	863.78
x1 = 0.7998	930.65	926.27	921.9	917.52	913.13	908.74	904.34	899.94
x1 = 0.9001	970.69	966.28	961.87	957.46	953.05	948.63	944.21	939.78
x1 = 0.95	991.86	987.44	983.01	978.59	974.17	969.74	965.31	960.88
x1 = 0.9801	1005.05	1000.62	996.19	991.77	987.34	982.91	978.48	974.05
x1 = 1	1013.99	1009.55	1005.12	1000.69	996.26	991.83	987.4	982.96

— the NIST ThermoML archive (doi:10.1021/je100145f)
